Experimental data as given in patent US20110206792A1, “COMPOSITIONS COMPRISING VITAMINS” (priority 2008, published 2011).

Assay: Stability studies for Melatonin, Resveratrol and L-ascorbic acid in cosmetic serum (HPLC with diode array detection, 55 days)
Type: physicochemical
Conditions: for concentration in the mixed formulation: formulation containing all three compounds, unchanged over 55 days; for change of concentration/percentage over 55 days: mixed versus single component formulation, 25° C. and 40° C.
Method: Stability studies for Melatonin, Resveratrol and L-ascorbic acid in cosmetic serum Object of this work was the studies related to the stability of Melatonin, Resveratrol and L-ascorbic acid when individually present in formulation in comparison with a formulation in which they are simultaneously mixed together, in order to explore the potential stabilization of L-ascorbic acid by Melatonin. The stability studies were performed at 25° C. (room temperature) and 40° C. (oven) for 55 days. Four formulations were analyzed: one mixture containing the three compounds together plus 3 formulations, which individually contained the three compounds. The excipients were all the same in the four formulations. The method employed to follow formulation stability is an HPLC method with diode array detection, under gradient conditions, as specified in the previous report. The results of these studies are shown in the graphs reported in FIGS. 10, 11 and 12 as well as in the following Tables 1, 2 and 3 where the percentages of the three compounds in the formulation (p/p) are plotted against time. In particular, the percentages were determined over 55 days, by comparison with reference standard compounds.

[1] = mix (three compounds together), T = 25° C., day 0
[2] = mix (three compounds together), T = 25° C., day 2
[3] = mix (three compounds together), T = 25° C., day 44
[4] = mix (three compounds together), T = 25° C., day 48
[5] = mix (three compounds together), T = 25° C., day 50
[6] = mix (three compounds together), T = 25° C., day 55
[7] = mix (three compounds together), T = 40° C., day 0
[8] = mix (three compounds together), T = 40° C., day 42
[9] = mix (three compounds together), T = 40° C., day 44
[10] = mix (three compounds together), T = 40° C., day 48
[11] = mix (three compounds together), T = 40° C., day 51
[12] = mix (three compounds together), T = 40° C., day 55
[13] = single component formulation, T = 25° C., day 0
[14] = single component formulation, T = 25° C., day 2
[15] = single component formulation, T = 25° C., day 44
[16] = single component formulation, T = 25° C., day 48
[17] = single component formulation, T = 25° C., day 50
[18] = single component formulation, T = 25° C., day 55
[19] = single component formulation, T = 40° C., day 0
[20] = single component formulation, T = 40° C., day 42
[21] = single component formulation, T = 40° C., day 44
[22] = single component formulation, T = 40° C., day 48
[23] = single component formulation, T = 40° C., day 51
[24] = single component formulation, T = 40° C., day 55

Question: For `COc1ccc2[nH]cc(CCNC(C)=O)c2c1` [Melatonin], which “concentration in the mixed formulation” value is on record?
Answer: Its value is 0.20%.

Question: What about the “percentage of the compound in the formulation (p/p)” value (shortened to “percentage of the compound … (p/p)”) [1] of the same compound?
Answer: The value was 0.20%.

Question: What about the “percentage of the compound … (p/p)” value [2] of the same compound?
Answer: The value was 0.25%.

Question: What about the “percentage of the compound … (p/p)” value [3] of the same compound?
Answer: Its value is 0.20%.

Question: And the “percentage of the compound … (p/p)” value [4]?
Answer: The value was 0.20%.

Question: What about the “percentage of the compound … (p/p)” value [5] of the same compound?
Answer: Its value is 0.23%.

Question: What about the “percentage of the compound … (p/p)” value [6] of the same compound?
Answer: Its value is 0.20%.

Question: And the “percentage of the compound … (p/p)” value [7]?
Answer: Its value is 0.18%.

Question: And the “percentage of the compound … (p/p)” value [8]?
Answer: Its value is 0.17%.

Question: What about the “percentage of the compound … (p/p)” value [9] of the same compound?
Answer: Its value is 0.18%.

Question: And the “percentage of the compound … (p/p)” value [10]?
Answer: Its value is 0.14%.

Question: What about the “percentage of the compound … (p/p)” value [11] of the same compound?
Answer: The value was 0.18%.

Question: And the “percentage of the compound … (p/p)” value [12]?
Answer: The value was 0.20%.

Question: What about the “change of concentration/percentage over 55 days” value of the same compound?
Answer: Its value is “does not change much”.

Question: What about the “concentration in the single component formulation” value (same concentration found after 55 days of storage at 25° C. and 40° C.) of the same compound?
Answer: The value was 0.28%.

Question: And the “percentage of the compound … (p/p)” value [13]?
Answer: The value was 0.28%.

Question: What about the “percentage of the compound … (p/p)” value [14] of the same compound?
Answer: Its value is 0.33%.

Question: And the “percentage of the compound … (p/p)” value [15]?
Answer: The value was 0.30%.

Question: And the “percentage of the compound … (p/p)” value [16]?
Answer: The value was 0.26%.

Question: And the “percentage of the compound … (p/p)” value [17]?
Answer: Its value is 0.31%.

Question: What about the “percentage of the compound … (p/p)” value [18] of the same compound?
Answer: Its value is 0.30%.

Question: And the “percentage of the compound … (p/p)” value [19]?
Answer: The value was 0.26%.

Question: And the “percentage of the compound … (p/p)” value [20]?
Answer: The value was 0.25%.

Question: And the “percentage of the compound … (p/p)” value [21]?
Answer: Its value is 0.25%.

Question: And the “percentage of the compound … (p/p)” value [22]?
Answer: The value was 0.29%.

Question: What about the “percentage of the compound … (p/p)” value [23] of the same compound?
Answer: The value was 0.29%.

Question: And the “percentage of the compound … (p/p)” value [24]?
Answer: The value was 0.28%.

Question: Which results are given for `Oc1ccc(C=Cc2cc(O)cc(O)c2)cc1` [Resveratrol]?
Answer: concentration in the mixed formulation: 0.20%; degradation (in 55 days, in all the conditions, formulations kept at 25° C. and 40° C.): approximately 10%; percentage of the compound in the formulation (p/p) [1]: 0.20%; percentage of the compound in the formulation (p/p) [2]: 0.20%; percentage of the compound in the formulation (p/p) [3]: 0.14%; percentage of the compound in the formulation (p/p) [4]: 0.20%; percentage of the compound in the formulation (p/p) [5]: 0.14%; percentage of the compound in the formulation (p/p) [6]: 0.16%; percentage of the compound in the formulation (p/p) [7]: 0.20%; percentage of the compound in the formulation (p/p) [8]: 0.18%; percentage of the compound in the formulation (p/p) [9]: 0.18%; percentage of the compound in the formulation (p/p) [10]: 0.20%; percentage of the compound in the formulation (p/p) [11]: 0.16%; percentage of the compound in the formulation (p/p) [12]: 0.18%; change of concentration/percentage over 55 days: does not change significantly; percentage of the compound in the formulation (p/p) [13]: 0.22%; percentage of the compound in the formulation (p/p) [14]: 0.19%; percentage of the compound in the formulation (p/p) [15]: 0.17%; percentage of the compound in the formulation (p/p) [16]: 0.20%; percentage of the compound in the formulation (p/p) [17]: 0.17%; percentage of the compound in the formulation (p/p) [18]: 0.17%; percentage of the compound in the formulation (p/p) [19]: 0.22%; percentage of the compound in the formulation (p/p) (single component formulation, T = 40° C., day 2): 0.19%; percentage of the compound in the formulation (p/p) [20]: 0.16%; percentage of the compound in the formulation (p/p) [21]: 0.20%; percentage of the compound in the formulation (p/p) [22]: 0.18%; percentage of the compound in the formulation (p/p) [23]: 0.20%; percentage of the compound in the formulation (p/p) [24]: 0.20%

Question: For `O=C1O[C@H]([C@@H](O)CO)C(O)=C1O` [L-ascorbic acid], which “change in L-ascorbic acid concentration” value (formulation containing all the three ingredients, 55 days) is on record?
Answer: Its value is “no change”.

Question: And the “concentration in the mixed formulation” value?
Answer: Its value is 14.5%.

Question: And the “percentage of the compound … (p/p)” value [1]?
Answer: The value was 15.34%.

Question: What about the “percentage of the compound … (p/p)” value [2] of the same compound?
Answer: The value was 14.10%.

Question: What about the “percentage of the compound … (p/p)” value [5] of the same compound?
Answer: The value was 15.10%.

Question: And the “percentage of the compound … (p/p)” value [6]?
Answer: Its value is 15.00%.

Question: And the “percentage of the compound … (p/p)” value [7]?
Answer: The value was 14.35%.

Question: What about the “percentage of the compound … (p/p)” value [8] of the same compound?
Answer: Its value is 14.30%.

Question: And the “percentage of the compound … (p/p)” value [9]?
Answer: The value was 15.13%.

Question: And the “percentage of the compound … (p/p)” value [10]?
Answer: The value was 13.50%.

Question: And the “percentage of the compound … (p/p)” value [11]?
Answer: The value was 14.96%.

Question: And the “percentage of the compound … (p/p)” value [12]?
Answer: Its value is 15.00%.

Question: And the “loss of L-ascorbic acid” value (single component formulation, 25° C., 55 days)?
Answer: The value was 22%.

Question: What about the “loss of L-ascorbic acid” value (single component formulation, 40° C., 55 days) of the same compound?
Answer: The value was 36%.

Question: And the “percentage of the compound … (p/p)” value [13]?
Answer: Its value is 13.40%.

Question: And the “percentage of the compound … (p/p)” value [14]?
Answer: Its value is 13.32%.

Question: And the “percentage of the compound … (p/p)” value [15]?
Answer: The value was 8.80%.

Question: What about the “percentage of the compound … (p/p)” value [16] of the same compound?
Answer: The value was 10.80%.

Question: What about the “percentage of the compound … (p/p)” value [17] of the same compound?
Answer: Its value is 10.50%.

Question: And the “percentage of the compound … (p/p)” value [18]?
Answer: Its value is 10.43%.

Question: And the “percentage of the compound … (p/p)” value [19]?
Answer: Its value is 14.86%.

Question: And the “percentage of the compound … (p/p)” value [20]?
Answer: The value was 8.46%.

Question: And the “percentage of the compound … (p/p)” value [22]?
Answer: The value was 8.60%.

Question: What about the “percentage of the compound … (p/p)” value [23] of the same compound?
Answer: Its value is 9.00%.

Question: What about the “percentage of the compound … (p/p)” value [24] of the same compound?
Answer: Its value is 9.60%.
